Tests used:
[1] = Reversal of P-gp-mediated drug resistance in human KBV cells assessed as potentiation of paclitaxel-induced cytotoxicity by measuring paclitaxel IC50 at 10 uM
[2] = Reversal of P-gp-mediated drug resistance in human KBV cells assessed as potentiation of paclitaxel-induced cytotoxicity by measuring paclitaxel IC50 at 10 uM after 48 hrs by MTT assay (Rvb = 1396.57 uM)
[3] = Reversal of P-gp-mediated drug resistance in human KBV cells assessed as potentiation of paclitaxel-induced cytotoxicity by measuring paclitaxel IC50 at 5 uM after 72 hrs by MTT assay (Rvb = 398.34 +/- 0.58 uM)
[4] = Reversal of P-gp-mediated drug resistance in human KBV cells assessed as potentiation of paclitaxel-induced cytotoxicity by measuring paclitaxel IC50 at 5 uM after 48 hrs by MTT assay (Rvb = 1396.57 uM)
[5] = Reversal of P-gp-mediated drug resistance in human KBV cells assessed as potentiation of paclitaxel-induced cytotoxicity by measuring paclitaxel IC50 at 5 uM after 24 hrs by MTT assay (Rvb = 3837.57 uM)
[6] = Reversal of P-gp-mediated drug resistance in human KBV cells assessed as potentiation of paclitaxel-induced cytotoxicity by measuring paclitaxel IC50 at 10 uM after 24 hrs by MTT assay (Rvb = 3837.57 uM)
[7] = Reversal of P-gp-mediated drug resistance in human KBV cells assessed as potentiation of paclitaxel-induced cytotoxicity by measuring paclitaxel IC50 at 10 uM after 72 hrs by MTT assay (Rvb = 398.34 +/- 0.58 uM)

Compound `CC1(C)CC[C@]2(C(=O)OCc3ccccc3)CC[C@]3(C)C(=CC[C@@H]4[C@@]5(C)Cc6nccnc6[C@@](C)(CO)[C@@H]5CC[C@]43C)[C@@H]2C1` has an IC50 [1] of 2.4 nM.

With `CN(C)CCCOC(=O)[C@]12CCC(C)(C)C[C@H]1C1=CC[C@@H]3[C@@]4(C)Cc5nccnc5[C@@](C)(CO)[C@@H]4CC[C@@]3(C)[C@]1(C)CC2` the IC50 [2] was 17.2 nM, the IC50 [3] was 12.3 nM and the IC50 [4] was 21.2 nM. It also gave an IC50 [5] of 49.8 nM, an IC50 [6] of 35 nM and an IC50 [7] of 1.59 nM.

Reference: BindingDB's records for doi:10.1016/j.ejmech.2018.10.033 (Key Laboratory of Molecular Pharmacology and Drug …, 2019)
